Experimental findings from a melting point compilation (Tetko et al.; mined from patent text by program, amines drawn as free bases though some values may be those of a salt) are described below.

The melting point is the temperature of the solid-liquid transition.

`O=C(O)Cc1cccc(F)c1OCCc1ccccc1` showed a melting point of 74 to 75 °C. As for `CCC(CC)(CC(=O)Nc1ccc2ccc(OCc3ccc4ccc(F)cc4n3)cc2c1)C(=O)O`, the figure is 164 to 166 °C. In the case of `Nc1cc(CO)ccc1Sc1nccnc1Cl` it was 148 to 150 °C. As to `CCCCC1OC(=O)c2cc(NC(N)=O)ccc21` (centres undefined), the melting point was in the range of 196 to 199 °C. As for `CCCNCC(O)c1cccc(F)c1` (centres undefined), the melting point lay within 46 to 47.3 °C. In turn, `COc1cncnc1OCc1ccc(C(C)(C)C)cc1` showed a melting point of 58 to 59 °C. In the case of `O=C(O)c1cc2cc(Cl)ccc2nn1` it was 207 to 208 °C; in that of `Cc1c(-c2ccc(Cl)c(C(=O)N(C)C)c2)sc2nc(N)[nH]c(=O)c12`, 300 to 320 °C. In the case of `COC(=O)Cc1ccccc1SCc1cccc(OC)c1` it was 87 to 89 °C; in that of `CCOC(=O)c1c(OC(C)=O)c2ccccc2c2nc3ccccc3nc12`, 195 to 196 °C. As for `COc1cc(-c2c(Cl)c(CN3CCCC3=O)nc3sc4c(c23)CCN(Cc2ccccc2)C4)ccc1OC(C)C`, the figure is 140 to 141 °C.

`COC(=O)c1cc(O)c(O)c([N+](=O)[O-])c1` had a melting point of 144 to 145 °C.

The compound `Cc1cccc2c1Cc1ccccc1OC(C(=O)O)O2` (centres undefined) had a melting point of 61 °C. As for `CC12CCC(CC1=C=C1C=CC(Nc3nc(Cl)nc(NC4=CCC(=C=C5CC6CCC5(C)C6(C)C)C=C4)n3)=CC1)C2(C)C`, the figure is 221 °C; as for `CC1(C)C(=O)NC(=O)c2cc(NC(N)=O)ccc21`, 260 to 264 °C. `Cc1cc(CCCCCCCOc2ccc(C3=NCCO3)cc2Cl)on1`: the melting point stood at 88 °C. As for `CCOC(=O)OC1CCN(C(=O)Cn2c(=O)sc3ccc(Cl)cc32)CC1`, the figure is 196 to 197 °C; as for `OCC12CCCN(CC1)C2` (centres undefined), 44 to 47 °C. In the case of `CC(C(=O)NO)c1ccc(C(=O)c2cccs2)cc1` (centres undefined) it was 144 °C. In the case of `N#Cc1cc(N)c(N)cc1C#N` it was 262 to 264 °C; in that of `C=CCN(CC=C)c1nc(N(CC=C)CC=C)nc(N2CCN(C(=O)NC(c3ccccc3)c3ccccc3)CC2)n1`, 158 to 159 °C; in that of `O=C(CCl)CC(=O)Nc1ccccc1`, 142 to 143 °C. Regarding `CCCCOc1ccc(C#CC2(O)CN3CCC2CC3)cc1` (single isomer, unassigned; (+)), the melting point was in the range of 115 to 116 °C. As for `CCn1c(-c2cc3ccccc3[nH]2)nc(-c2ccncc2)c1-c1ccc(Cl)cc1`, the figure is 279 to 280 °C; as for `Cc1ccc(C=NNC(=O)c2ccc(O)cc2)cc1`, 253 °C; as for `CCOC1CCN(C(=O)c2ccc(Cl)c(C3(C)C(=O)N(Cc4ccc(OC)cc4OC)c4ccc(Cl)cc43)c2)CC1` (centres undefined), 108 °C. `CC(C)C[C@H](NC(=O)[C@H](Cc1c[nH]cn1)NC(=O)C(CC(=O)NCCc1ccccc1)Cc1cccc2ccccc12)[C@@H](O)CCO` (some centres undefined) returned a melting point of 87 to 92 °C. As for `C=C(C)C(=O)OCCOCCOC(=O)c1ccc(O)c(Cl)c1`, the figure is 57 to 58.5 °C.

Take `CC(=O)NCc1ccc2[nH]cc(C=O)c2c1`: the melting point lay within 182 to 184 °C. `FC(F)(F)c1ccnc(Oc2ccc(CCOc3ncnc4nccnc34)cc2)c1`: the melting point is 172 to 173 °C.

Turning to `COC(=O)c1cc(NC(=O)c2ccc(Cl)cc2)c2cc(Cc3ccc(F)cc3)cnc2c1O`, the melting point lay in the range of 253 to 254 °C. As for `O=C(O)CNC(=O)Nc1cccc(C(=O)OCc2ccccc2)c1`, the figure is 168 °C. As for `CC(C)(C)c1ccc(-c2ccc3c(c2)C=C(C(=O)O)CCO3)cc1`, the figure is 259 to 261 °C. As for `CCOC(=O)c1ncsc1-c1cc(F)cc(F)c1`, the figure is 112 to 113 °C; as for `O=C(OCN1C(=O)CN(CCN2CC(=O)N(COC(=O)c3ccc4c(c3)OCO4)C(=O)C2)CC1=O)c1ccc2c(c1)OCO2`, 195 to 198 °C. In the case of `O=C1c2ccc(Br)cc2OCC1n1ccnc1` (centres undefined), the melting point fell in the range of 201 to 203 °C. Take `CCCn1cc2c(C3C(=O)Nc4ccc(Br)cc43)ncnc2n1` (centres undefined): the melting point is above 300 °C.

Compound `CS(=O)(=O)c1ccc2c(c1)C(=O)CC2` gave a melting point of 155 °C. In the case of `Cc1ccc(OCC(O)CNC(C)(C)C)c(C2=NNC(=O)CC2)c1` (centres undefined) it was 126 to 128 °C; in that of `COc1ccc(-c2nc(SCCO)sc2-c2ccc(OC)cc2)cc1`, 83 to 84 °C.

`O=c1[nH]c2cc(Cl)ccc2c(O)c1-n1ccccc1=O` came in with a melting point of 355 °C. In the case of `CN1CCOC(CC23CC(c4ccccc42)c2ccccc23)C1` (centres undefined) it was 136 to 137 °C; in that of `c1cc(Nc2nnc3c4c(cccc24)-c2ccccc2-3)cc(-n2ccnc2)c1`, 223 to 226 °C. As for `Cc1oc(-c2ccco2)nc1COc1ccc(COc2nn(Cc3ccccc3)cc2C=O)cc1-c1ccccc1`, the figure is 122 to 123 °C; as for `O=C(Nc1ncc[nH]1)c1cnc2c(C(F)(F)F)cccc2c1O`, 211 °C; as for `CCOC(=O)C1=Cc2cc(Cl)c(C)c(Cl)c2OC1C(F)(F)F` (centres undefined), 117 to 120 °C. In the case of `O=C(O)C(=O)Nc1coc2ccccc2c1=O` it was 195 to 197 °C; in that of `FC(F)(F)c1ccc2onc(Nc3ccncc3)c2c1`, above 280 °C.

In turn, `Cc1ccc2nc(-c3ccc(N)c(Br)c3)sc2c1` came in with a melting point of 188 to 190 °C. As for `CC(C)(C)NCC(O)COc1cccc2c1CNC(=O)N2` (centres undefined), the figure is 204 to 205 °C. As for `NS(=O)(=O)C12CC3CC(CC(C3)C1)C2`, the figure is 191 to 193 °C; as for `CCOc1cc2c(cc1OCC)C1CN(C)CCC1N=C2c1ccc(C#N)cc1` (single isomer, unassigned; (-)), 141 °C; as for `CCc1nc2ccc(S(C)(=O)=O)nn2c1S(N)(=O)=O`, 225 to 226 °C. As for `OC(c1cc2ccccc2c2ccccc12)c1cc2ccccc2c2ccccc12`, the figure is 236 to 238 °C; as for `O=C(Nc1c(OCc2ccccc2)cc(Br)cc1[N+](=O)[O-])C(F)(F)F`, 146 to 147 °C; as for `Cc1cc(Cl)cc(C(=O)NCC2CC2)c1N`, 127 to 128 °C. Consider `COc1ccc2c(C(=O)c3ccc(OC4CCCCC4N(C)C)cc3)c(-c3ccc(OCCN4CCCC4)cc3)sc2c1` (centres undefined), for which the melting point lay in the range of 61 to 64 °C. As for `COc1ccc(-n2c(-c3cc(-c4ccc(Cl)cc4)c(N4CCOCC4)s3)nc3ccccc3c2=O)cc1`, the figure is 217 to 218 °C. Compound `CCOC(=O)c1cc2cccc([N+](=O)[O-])c2n1COC` came in with a melting point of 62 to 63 °C.

Turning to `O=C(CC12CC3CC(CC(C3)C1)C2)Nc1cc(O)ccc1Cl`, the melting point lay within 224 to 225 °C.

For the compound `CC(OCc1ccc(-c2ccc(Cl)cc2)cc1)(C(=O)O)C(F)(F)F` (centres undefined), the melting point was in the range of 135 to 136 °C. As for `CC(=O)OCOC(=O)c1oc(-c2ccccc2)cc(=O)c1Br`, the figure is 121 °C; as for `CCOC(=O)C(Cc1ccc(Cl)cc1)NC(=S)Nc1ccc(C(C)C)cc1` (centres undefined), 73 to 75 °C. In the case of `CCCCc1nc2ccc(C(=O)O)cc2n1Cc1ccc(-c2ccccc2-c2nnn[nH]2)cc1` it was 258 to 259 °C; in that of `C(=C\c1cc(/C=C/c2ccc3[nH]ccc3c2)n[nH]1)/c1cccc(OCc2ccccn2)c1`, 183 to 186 °C; in that of `CNS(=O)(=O)c1cc2c(c(C(=O)NC3CCN(Cc4ccccc4)CC3)c1)OCCO2`, 228 °C.

`COc1ccc(CC(=O)NC2CCN(Cc3ccccc3)CC2)cc1` gave a melting point of 171 to 173 °C.

In turn, `CCC(=S)NC[C@H]1CN(c2ccc(N3CCN(C(=O)COc4ccccc4)CC3)c(F)c2)C(=O)O1` displayed a melting point of 171 to 172 °C. As to `O=C(Nc1cccc2c1C(=O)c1c-2n[nH]c1-c1ccc(C(=O)N2CCNCC2)s1)NN1CCOCC1`, the melting point is 241 to 242 °C. In the case of `CC(C(=O)O)c1ccc(-n2cc(Br)cn2)c(Cl)c1` (centres undefined) it was 116 to 117 °C. The compound `NC(Cc1ccccc1F)=NO` showed a melting point of 85 to 87 °C. As for `O=S1(=O)N=C(NC2CCCCC2)Nc2cc(Cl)sc21`, the figure is 282 to 284 °C.

Compound `CC(C)Nc1c(C#N)cnn1-c1c(Cl)cc(SC(F)(F)F)cc1Cl` showed a melting point of 130 °C. For `O=CNc1nc(S(=O)(=O)Nc2c(F)cccc2F)n[nH]1`, the melting point was 258 to 260 °C.

`Cc1ccc(-c2cc(Br)c3c(c2)CCC(=O)N3)c(C)n1`: the melting point fell in the range of 194 to 195 °C.

For `Cc1cc(Sc2ccc(O)c(C)c2)ccc1O`, the melting point turned out to be 124 °C. In the case of `CCCCCCCCCCCCCCCCc1nc(N(C)C)nc(OC)c1O` it was 78 to 79 °C; in that of `O=c1c(Cc2cccnc2)cn2c3ccccc3c(=O)c3cccc1c32`, 266 to 268 °C; in that of `O=C(c1ccc(Cl)cc1)c1c(Cl)cc(CBr)cc1Cl`, 69 to 73 °C.

`O=C(N[C@H](Cc1ccc(F)cc1)[C@@H](O)c1ccc(C(F)(F)F)cc1)C1CCCCC1` (racemic) gave a melting point of 220 to 221 °C.

`O=C(NCc1ccc2c(Br)c(OC(Cc3ccccc3)C(=O)O)ccc2c1)c1ccc(Oc2cc(Cl)cc(Cl)c2)o1` (centres undefined) returned a melting point of 86 to 100 °C. As for `CCOC1=NS(=O)(=O)N(C)C(Cl)=N1`, the figure is 75 to 80 °C; as for `CC1(C)CCC(=O)Nc2ccc(Nc3ncc(Cl)c(N[C@@H]4CCCC[C@H]4NS(C)(=O)=O)n3)cc21`, 170 to 185 °C.

Compound `O=C(CCCCCCCCc1ccc(Cl)cc1)NO` showed a melting point of 48 to 50 °C. As to `Nc1cccnc1Nc1ccccc1C(=O)c1cccc(F)c1`, the melting point lay in the range of 135 to 137 °C. Compound `CCc1cc(-c2nnc3c4ccccc4c(OCc4ncn(C)n4)nn23)no1` yielded a melting point of 236 to 238 °C. In the case of `Cn1c(C(F)(F)F)cc(=O)n(-c2ccc3snc(C4OCCCS4)c3c2)c1=O` (centres undefined) it was 125 to 130 °C. As for `Cc1cc(S(=O)(=O)O)ccc1NC(=O)NN`, the figure is 252 to 255 °C; as for `N#Cc1c(N2CCN(C(=O)c3cccs3)CC2)c2cc(F)cnc2n(CC(=O)c2ccccc2)c1=O`, 262 °C.
